This note sets out measurements from patent US10172816B2, “Method of treating chronic obstructive pulmonary disease (CPD) with verproside” (YUNGJIN PHARMACEUTICAL CO., LTD, priority 2013, dated 2019).

One assay concerns Mucin 5A/C. In words: Acrolein-induced Mucin 5A/C expression in A549 cells (RT-PCR). It counts as cell-based, human. As to conditions: pre-treated 1 hour, then 30 nM acrolein, dose dependent. How it is done:
The diluted A549 cell line (ATCC, CCL-185) with DMEM medium supplemented with 5% phenol red and FBS (Fetal Bovine Serum) was seeded in 6 well plates (4×10^5 cells/well) to adhere thereto for a night, and 20 and 40 microgram/ml of ATC2 extract were treated with A549 cell line for 1 hours. 30 nM acrolein was treated therewith to induce Mucin 5A/C expression. The medium was removed the cell, washed with PBS solution and homogenized with Trizol (Invitrogen, CA, USA) for the isolation of ribonucleic acids from the cells for 5 mins. the cells were collected, transferred to centrifugal separator, completely mixed with chloroform for 15 seconds, left alone for 3 mins and centrifuged for 15 mins at the speed of 14,000 rpm. The supernatant containing ribonucleic acid was transferred to new tube and mixed with isopropylalcohol for 10 mins. The solution was centrifuged to discard the supernatant and 75% ethanol was added to the precipitate. The precipitate was centrifuged for 5 mins at the speed of 10,000 rpm and the supernatant was discarded. The precipitated ribonucleic acid was dried at room temperature for 20 mins. […] After the quantification of ribonucleic acid, the complementary DNA was synthesized using by 1 microgram of RNA and RT-kit (Omniscript RT kit, Qiagen, USA) and the synthetic cDNA was used as a template. […]

For assay [1], the system named is KC/CXCL-1 (Chemokines Gro-α). In words: COPD mouse model (LPS+CS): KC/CXCL-1 in BALF by ELISA. The following applies: 15 mg/kg, p.o. It counts as in vivo, BALB/c mice. How it is done:
(§1) 8 weeks aged BALB/c male mice was anaesthetized with 7% chloral hydrate and 100 μl of LPS+CS mixture {LPS (100 μg/ml)+standard cigarette extract (Cigarette smoking (CS), 4 mg/ml)=1:1} was inhaled to mice (i.t.) for three weeks once a week to prepare COPD animal model. Briefly, 100 μl of LPS+CS mixture was evenly inhaled to nose and mouth of fastened mice (i.t). […] After the end of experiment, the blood, BALF, and pneumonocyte of each mice were isolated and collected to test. The level of IL-1β, IL-6, TNF-a, IL-17, MCP-1, and GRO-a (BioSource, USA) in BALF isolated from mice was determined by enzyme-linked immuno-sorbent assay. Respective antibodies against L-1β, IL-6, TNF-a, IL-17, MCP-1, and GRO-a were diluted with a coating buffer solution (291195, R&D System, USA), coated on a microwell and left alone for overnight at 4° C. Each well was washed three times with washing buffer solution and 100 μl of 10-fold diluted serum was added thereto. […] The solution was left alone for 30 mins in shadow and added with 50 μl of stop solution (DY994, R&D system, USA) to determine the absorbance using by ELISA leader at 450 nm (340PC384, Molecular Devices, USA).
A general note: ELISA stands for enzyme-linked immunosorbent assay.

For a further assay, the system named is TNF-α. In words: COPD mouse model (LPS+CS): TNF-α in BALF by ELISA. It counts as in vivo, BALB/c mice. As to conditions: 15 mg/kg, p.o. As for the experimental part:
as §1

The test system of the next assay is MIP-2/CXCL-2. In words: COPD mouse model (LPS+CS): MIP-2/CXCL-2 in BALF by ELISA. It counts as in vivo, BALB/c mice. The following applies: 15 mg/kg, p.o.
A further assay concerns IL-1β, IL-6, and TNF-α. In words: COPD rat model (cigarette smoke): cytokine release in BALF by ELISA. It is filed as in vivo, Sprague-Dawley rat. The following applies: ATC2 and Verproside 30 mg/kg, Daxas 1 mg/kg, p.o.
The subject of another assay is MMP-9. In words: COPD rat model: MMP-9 activity in lung tissue (gelatin zymography). It is filed as in vivo, Sprague-Dawley rat. As to conditions: ATC2 and Verproside 30 mg/kg, p.o.; level similar to Daxas group. As for the experimental part: The exposure of cigarette smoke was performed by using a cigarette smoke generator (CH Technology Corp. USA). In a detail, 1 hour after the orally administration of test samples using by Head/nose-only exposure unit (TSE System, German) according to nose-only method, the cigarette smoke was exposed by inhalation for 3 days every hour. 8 puffs (volume 35 ml, duration 2 sec, interval 1 time/min) per one piece of standard cigarette was performed in the experiment. […]
The lung tissue of rat was homogenized with Tissue lysis buffer (C3228, Sigma-Aldrich, USA) treated with a protease inhibitor (11836153001, Roche, Germany) and the homogenized lung tissue was centrifuged at 12000 rpm for 10 mins to isolate the supernatant. The protein assay reagent (500-0006, Bio-Rad, USA) was used to quantification. […] The density of MMP-9 band was determined using by Chemi-doc (170-8070, Bio-Rad, USA) to determine the activity of MMP-9.

In the next assay the test system is MMP-9 and NF-κB. In words: COPD rat model: expression of proinflammatory proteins in lung tissue (Western blotting). It is filed as in vivo, Sprague-Dawley rat. As to conditions: ATC2 and Verproside 30 mg/kg, Daxas 1 mg/kg, p.o. (In general: Immunoblotting shows a protein as a band on a membrane.)

Method for IL-1β, IL-6, and TNF-α: The exposure of cigarette smoke was performed by using a cigarette smoke generator (CH Technology Corp. USA). In a detail, 1 hour after the orally administration of test samples using by Head/nose-only exposure unit (TSE System, German) according to nose-only method, the cigarette smoke was exposed by inhalation for 3 days every hour. 8 puffs (volume 35 ml, duration 2 sec, interval 1 time/min) per one piece of standard cigarette was performed in the experiment. The tested groups were divided into five groups, i.e., (i) normal group with no treatment (normal control, NC), (ii) control group exposed with cigarette smoke (COPD), (iii) test sample group treated with Daxas (1 mg/kg, p.o) 1 hr prior to cigarette smoke exposure (DA), (iv) test sample group treated with ATC2 (30 mg/ml, p.o) 1 hr prior to cigarette smoke exposure (YPL), and (v) test sample group treated with Verproside (30 mg/ml, p.o) 1 hr prior to cigarette smoke exposure (Ver). After the end of experiment, the blood, BALF, and pneumonocyte of each rat were isolated and collected to test.
The level of IL-1β, IL-6, and TNF-a (R&D System, USA) in BALF isolated from the rat was determined by enzyme-linked immuno-sorbent assay (ELISA). The analysis of each cytokine was performed according to the manufacturer's manual, and the absorbance was determined at 450 nm by ELISA leader (340PC384, Molecular Devices, USA).
Method for MMP-9 and NF-κB: The exposure of cigarette smoke was performed by using a cigarette smoke generator (CH Technology Corp. USA). In a detail, 1 hour after the orally administration of test samples using by Head/nose-only exposure unit (TSE System, German) according to nose-only method, the cigarette smoke was exposed by inhalation for 3 days every hour. 8 puffs (volume 35 ml, duration 2 sec, interval 1 time/min) per one piece of standard cigarette was performed in the experiment. The tested groups were divided into five groups, i.e., (i) normal group with no treatment (normal control, NC), (ii) control group exposed with cigarette smoke (COPD), (iii) test sample group treated with Daxas (1 mg/kg, p.o) 1 hr prior to cigarette smoke exposure (DA), (iv) test sample group treated with ATC2 (30 mg/ml, p.o) 1 hr prior to cigarette smoke exposure (YPL), and (v) test sample group treated with Verproside (30 mg/ml, p.o) 1 hr prior to cigarette smoke exposure (Ver).
The protein obtained from homogenization was performed to electrophoresis at the dose of 30 μg/lane and transferred using by polyvinylidene difluoride (PVDF) membrane (IPVH00010, Millipore, USA).

Regarding `O=C(O[C@H]1[C@@H]2C=CO[C@@H](O[C@@H]3O[C@H](CO)[C@@H](O)[C@H](O)[C@H]3O)[C@@H]2[C@@]2(CO)O[C@@H]12)c1ccc(O)c(O)c1` [verproside, 6-O-(3,4-dihydroxybenzoyl) catalpol], the “expression of Mucin 5A/C (mRNA, RT-PCR)” value in the assay with Mucin 5A/C is recorded as “inhibited”. For the same molecule, in assay [1], the “reduction of chemokine KC/CXCL-1 in BALF compared with control group” value was “more than 57.4%”. Besides, in the assay with TNF-α, the “reduction of TNF-α in BALF compared with control group” value is given as “more than 42.2%”. For the same molecule, the “reduction of chemokines MIP-2/CXCL-2 in BALF compared with control group” value in the assay on MIP-2/CXCL-2 was “more than 63.0%”. The “level of cytokines (IL-1β, IL-6, TNF-α) in BALF compared with COPD induced group” value with IL-1β, IL-6, and TNF-α was “significantly reduced level”. Moreover, the “activity of MMP-9 in lung tissue” value in the assay on MMP-9 is “remarkably reduced activity”. In addition, in the assay with MMP-9 and NF-κB, the “expression of proinflammatory protein (MMP-9, NF-κB) in lung tissue compared with COPD induced group” value was “significant decreased”.
